“Also recorded” adds a separate entry of the source.
Columns and labels:
[1] = target: T1, Trichoderma reesei Cel7B endoglucanase I (Trichoderma reesei, UniProt P07981); experiment: PASC hydrolysis by Cel7B endoglucanase I; assay type: biochemical; conditions: 10 mM FeSO4; 2 g PASC and 40 mg enzyme per liter (FIG. 20C)
T1 construct: made in house; host or cells: Aspergillus oryzae JaL250

[2] = system: Cellulolytic Enzyme Composition #1; experiment: mini-plate-scale AVICEL hydrolysis by Cellulolytic Enzyme Composition #1; assay type: biochemical, Trichoderma reesei
[3] = target: T2, Aspergillus oryzae CEL3A beta-glucosidase (Aspergillus oryzae, UniProt Q2UUD6); experiment: Cellobiose hydrolysis by CEL3A beta-glucosidase; assay type: biochemical; conditions: 10 mM FeSO4; 2 g cellobiose and 1 mg enzyme per liter (FIG. 21)
T2 construct: made in house
Description: The Fe(II) inhibition of Aspergillus oryzae CEL3A beta-glucosidase was measured similarly, except cellobiose replaced PASC. The initial rate vs Fe(II) concentration plots appeared as “mixed” type, whose complexity prevented extraction of Kis.

[4] = target: T3, Trichoderma reesei Cel5A endoglucanase II (Trichoderma reesei, UniProt P07982); experiment: PASC hydrolysis by Cel5A endoglucanase II; assay type: biochemical; conditions: 10 mM FeSO4; 2 g PASC and 40 mg enzyme per liter (FIG. 20D)
T3 construct: made in house; host or cells: Aspergillus oryzae JaL250 (transformant JaL250AlLo27)

[5] = system: Cellulolytic Enzyme Composition #1; experiment: mini-plate-scale PASC hydrolysis by Cellulolytic Enzyme Composition #1; assay type: biochemical, Trichoderma reesei
Description: Various (biologically common) divalent metal cations with variable ionic radii were tested in 2.8 ml Deep Well Microplates (VWR International, West Chester, Pa., USA) (“mini-plate-scale”) containing 1 ml suspensions of 25 g of AVICEL® per liter in 50 mM sodium acetate pH 5 at 50° C. Cellulolytic Enzyme Composition #1 was added at 0.25 g per liter for each hydrolysis. The mini-plates were sealed at 160° C. for 2 seconds using an ABGENE® ALPS 300™ sealer (ABgene, Rochester, N.Y., USA). The sealed mini-plates were incubated at 50° C. in an INNOVA® 4080 incubator shaker at 150 rpm. Soluble reducing sugars were measured by HPLC as described in Example 30.
In one series of “mini-scale” hydrolysis reactions performed according to the procedure described in Example 30, the effect of 1 mM to 10 mM FeSO4 was evaluated in the hydrolysis of AVICEL® by Cellulolytic Enzyme Composition #1. In a series of “mini-plate-scale” hydrolysis reactions performed according to the procedure described in Example 32, the effect of 1 mM to 10 mM FeSO4 was evaluated in the hydrolysis of PASC by Cellulolytic Enzyme Composition #1, except 2 g of PASC and 0.05 g Cellulolytic Enzyme Composition #1 per liter of 50 mM sodium acetate pH 5 were used.
The above study was extended to a range of concentration of Fe(II) and cellulose. In a series of “mini-plate-scale” hydrolysis reactions performed according to the procedure described in Example 32, except that 0.1 to 10 mM FeSO4, 0.6 to 4 g of PASC and 0.01 g of Cellulolytic Enzyme Composition #1 per liter of 50 mM sodium acetate pH 5 were used.

[6] = system: Cellulolytic Enzyme Composition #2; experiment: mini-scale PCS hydrolysis by Cellulolytic Enzyme Composition #2; assay type: biochemical, Trichoderma reesei
Description: Corn stover was pretreated at the U.S. Department of Energy National Renewable Energy Laboratory (NREL), […], Colo., USA, using dilute sulfuric acid. The following conditions were used for the pretreatment: 1.4 wt % sulfuric acid at 195° C. for 4.5 minutes. According to limit digestion with excess cellulase enzymes, the water-insoluble solids in the pretreated corn stover (PCS) contained 59.5% cellulose. Prior to use, the PCS was washed with a large volume of deionized water until soluble acid and sugars were removed. The dry weight of the water-washed PCS was 19.16%.
The effect of various salts (FeSO4, FeCl2, NaCl, Na2SO4, MnSO4, MnCl2) was determined in the hydrolysis of PCS by Cellulolytic Enzyme Composition #2. […] Cellulolytic Enzyme Composition #2 was added at 0.25 g per liter. Reactions without the addition of the salt served as controls. The capped tubes were incubated at 50° C. in an INNOVA® 4080 incubator shaker (New Brunswick Scientific Co., Inc., Edison, N.J., USA) at 150 rpm.
Aliquots of the suspensions, sampled over time, were filtered by centrifugation using a 0.45 μm MULTISCREEN® HV membrane (Millipore, Billerica, Mass., USA) at 2000 rpm for 15 minutes using a SORVALL® RT7 centrifuge (Thermo Fisher Scientific, Waltham, Mass., USA). When not used immediately, the filtered sugary aliquots were frozen at −20° C. Sugar concentrations of the samples diluted in 0.005 M H2SO4 were measured after elution from a 4.6×250 mm AMINEX® HPX-87H column (Bio-Rad, Hercules, Calif., USA) by 0.005 M H2SO4 at a flow rate of 0.4 ml/minute at 65° C. with quantitation by integration of glucose and cellobiose using refractive index detection (CHEMSTATION®, AGILENT® 1100 HPLC, Agilent Technologies, Santa Clara, Calif., USA) calibrated with standards of glucose and cellobiose. The resultant equivalents were used to calculate the percentage of cellulose conversion for each reaction.
The degree of cellulose conversion to glucose plus cellobiose (% conversion) was calculated using the following equation:
% Conversion=(glucose+cellobiose×1.053)(mg/ml)×100×162/cellulose(mg/ml)×180)=(glucose+cellobiose×1.053)(mg/ml)×100/(cellulose(mg/ml)×1.111)
In this equation the factor 1.111 reflects the weight gain in converting cellulose to glucose, and the factor 1.053 reflects the weight gain in converting cellobiose to glucose. Cellulose in PCS was determined by a limit digest of PCS to release glucose and cellobiose.

T3 sequence (P07982 22-418): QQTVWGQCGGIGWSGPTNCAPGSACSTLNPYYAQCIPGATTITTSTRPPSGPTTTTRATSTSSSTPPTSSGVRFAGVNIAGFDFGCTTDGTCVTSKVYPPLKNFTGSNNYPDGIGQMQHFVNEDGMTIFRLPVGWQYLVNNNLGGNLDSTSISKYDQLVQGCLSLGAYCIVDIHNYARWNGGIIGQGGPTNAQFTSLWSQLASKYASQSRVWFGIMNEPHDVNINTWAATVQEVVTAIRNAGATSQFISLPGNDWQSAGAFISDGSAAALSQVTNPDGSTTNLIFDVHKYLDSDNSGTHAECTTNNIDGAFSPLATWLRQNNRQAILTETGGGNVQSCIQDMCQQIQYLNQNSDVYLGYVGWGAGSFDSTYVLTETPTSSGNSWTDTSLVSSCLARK
T2 sequence (Q2UUD6 20-861): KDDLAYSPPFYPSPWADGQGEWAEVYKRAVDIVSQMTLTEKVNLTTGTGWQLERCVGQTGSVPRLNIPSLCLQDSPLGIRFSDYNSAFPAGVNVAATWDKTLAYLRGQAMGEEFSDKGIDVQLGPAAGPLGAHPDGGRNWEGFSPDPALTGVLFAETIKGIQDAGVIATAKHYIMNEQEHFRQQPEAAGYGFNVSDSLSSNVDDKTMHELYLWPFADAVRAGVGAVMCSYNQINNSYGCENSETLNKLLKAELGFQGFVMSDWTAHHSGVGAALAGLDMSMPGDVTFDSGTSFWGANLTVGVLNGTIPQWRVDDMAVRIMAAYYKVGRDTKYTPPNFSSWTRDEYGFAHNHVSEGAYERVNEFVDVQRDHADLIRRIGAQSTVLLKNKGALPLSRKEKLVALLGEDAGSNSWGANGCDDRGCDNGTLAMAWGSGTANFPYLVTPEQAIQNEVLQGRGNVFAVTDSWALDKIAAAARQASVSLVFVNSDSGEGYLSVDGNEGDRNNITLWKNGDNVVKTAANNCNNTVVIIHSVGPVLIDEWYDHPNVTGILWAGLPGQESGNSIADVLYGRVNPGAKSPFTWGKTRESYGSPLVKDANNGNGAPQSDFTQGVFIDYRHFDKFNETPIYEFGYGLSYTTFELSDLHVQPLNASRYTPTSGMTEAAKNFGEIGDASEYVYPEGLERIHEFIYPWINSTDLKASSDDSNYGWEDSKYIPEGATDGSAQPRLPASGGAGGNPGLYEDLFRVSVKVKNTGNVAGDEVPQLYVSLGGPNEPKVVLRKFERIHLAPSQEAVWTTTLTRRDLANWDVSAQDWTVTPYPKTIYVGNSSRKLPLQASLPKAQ
T1 sequence (P07981 23-459): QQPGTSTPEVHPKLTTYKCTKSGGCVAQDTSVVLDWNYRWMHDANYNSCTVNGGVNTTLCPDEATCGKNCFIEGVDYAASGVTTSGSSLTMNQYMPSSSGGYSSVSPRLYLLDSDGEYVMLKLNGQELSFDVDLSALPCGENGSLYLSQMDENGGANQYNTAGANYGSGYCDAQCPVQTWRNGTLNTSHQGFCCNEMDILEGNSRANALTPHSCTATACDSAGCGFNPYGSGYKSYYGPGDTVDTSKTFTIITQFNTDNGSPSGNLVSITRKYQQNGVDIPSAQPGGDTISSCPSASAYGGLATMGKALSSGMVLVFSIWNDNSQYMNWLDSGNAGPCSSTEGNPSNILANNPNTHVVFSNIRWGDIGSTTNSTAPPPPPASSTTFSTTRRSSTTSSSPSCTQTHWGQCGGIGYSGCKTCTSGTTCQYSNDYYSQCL

Ferrous sulfate [FeSO4] was tested, and the Effect on enzyme [1] was “significantly inhibited”, the “Effect on hydrolysis over concentration range” value ([2]; 0.1 to 10 mM) was “concentration-dependent inhibition” and the “Type of inhibition (double-reciprocal plots)” value ([2]; 0.5 to 4 mM FeSO4, 0.6 to 4 g AVICEL per liter) was “mix-type inhibition”. For the same substance, the Effect on enzyme [3] was “slightly inhibited”, the Effect on enzyme [4] was “significantly inhibited” and the “Concentration dependence of inhibition” value ([5]; 1 mM to 10 mM FeSO4, PASC (FIG. 19C)) was “increasingly inhibitory”. The “Type of inhibition (double-reciprocal plots)” value ([5]; 0.1 to 10 mM FeSO4, 0.6 to 4 g PASC, 0.01 g enzyme per liter) was “mix-type inhibition”, the Ki ([5]; on PASC, 2 g PASC and 0.05 g enzyme per liter, read-out: Ki (x-intercept of Dixon plot)) was ~14 mM and the “Effect on PCS hydrolysis” value ([6]; 10 mM salt, 43.4 g PCS and 0.25 g enzyme per liter, 50 mM sodium acetate pH 5, 50° C.) was “significant inhibition; also recorded: significantly inhibited”. For the same substance, the “Effect on the cellulases” value ([6]; 0.1 and 1 mM) was “did not significantly affect”.

Source: patent publication US20090130707A1, “Methods of reducing the inhibitory effect of a redox active metal ion on the enzymatic hydrolysis of cellulosic material” (priority 2007, published 2009)
